Experimental data from a melting point compilation (Tetko et al.; mined from patent text by program, amines drawn as free bases though some values may be those of a salt).

Row | melting point [°C] | Structure (SMILES)
1 | 195 to 196 | Cc1c(C)c2c(c(C)c1NC(=O)CC(C)(C)C)C(c1ccc(C=O)cc1)CO2 (stereo not drawn)
2 | 72 to 73 | COCc1cc2ccccc2oc1=O
3 | 51 to 52 | CCCC(CCCCCN1C(=O)c2ccccc2C1=O)(C(=O)OCC)C(=O)OCC
4 | 174 to 175 | NCCNC(=O)CCCOc1ccc(C2=NNC(=O)CC2)cc1
5 | 140 to 141 | CCO/N=C(/CC)c1ccc(Cl)c2nc3n(c12)CCCN3c1ccc(Cl)cc1Cl
6 | 202 to 203 | O=[N+]([O-])c1ccc(-c2noc(-c3ccccn3)n2)cc1
7 | 136 to 139 | O=C1Nc2cccnc2N(C(=O)N2CCCC(CCN3CCCC3)C2)c2cc(Cl)ccc21 (stereo not drawn)
8 | 186 to 187 | Cc1nc(-n2ccnc(C)c2=O)sc1C(=O)NCc1ccccc1
9 | 137 to 138 | C#Cc1cccc(Nc2ncnc3cc(OCCOC(C)=O)c(OCCOC(C)=O)cc23)c1
10 | 185 to 187 | CC(C)c1ccc(N(Cc2ccc(N(C)C)cc2)C(=O)C2CCS(=O)(=O)c3ccccc32)cc1 (stereo not drawn)
11 | 172 to 173 | Cc1ccccc1S(=O)(=O)OC1C2C(C(=O)N1Cc1ccc3c(c1)OCO3)C(c1ccc(Br)cc1)N(C)C2(C)C (stereo not drawn)
12 | 105 to 106 | CCOc1cccc(CN2CCc3cc(O)c(OC)cc3C2)c1
13 | 245 to 247 | O=C(c1ccc(Nc2ncnc3ccccc23)cc1)N1CCN(c2ncc(Cc3ccccc3)cn2)CC1
14 | 123 to 125 | CCCCCCCCCCC1Cc2ccc(C(=O)O)cc2N1 (racemic)
15 | 82 to 83.5 | Nc1cccc(N)c1Cl
16 | 196 to 197 | Cc1c(C(=O)Nc2ccc(N3CCCCC3)c(C#N)c2)cnn1-c1ccc(F)cc1
17 | 169 to 171 | CC(=O)Oc1ccccc1C(=O)Nc1ccc2oc(C)nc2c1
18 | 230 to 232 | Cc1conc1-c1nnc2c3ccccc3c(OCc3nnccc3C(C)(C)C)nn12
19 | 144 to 146 | Cc1ccc(C2CC(=O)c3ccccc3N2)cc1 (stereo not drawn)
20 | 152 to 153 | O=C1NCC(COc2cccc3c2SCCC3)O1 (stereo not drawn)
21 | 175 | COc1ccnc(CSc2nc3c(C(F)(F)F)cccc3[nH]2)c1C
22 | 110 | Clc1cccc(N2CCN(CCCCNc3ccc(-c4ccccc4)cn3)CC2)c1Cl
23 | 261 | COc1cc2nc(C(=O)O)c(=O)n(C)c2cc1OC
24 | > 263 | Cc1c2ccnc(Cl)c2cc2c1[nH]c1ccncc12

Row | melting point [°C] | Structure (SMILES)
25 | 178 to 179 | COc1ccc(CCC(=O)C2CCC3C4CCc5cc(C(=O)O)ccc5C4CCC23C)cc1 (stereo not drawn)
26 | 144 to 146 | CC1(C)OCC(C(O)CNC(=O)CS(=O)(=O)Nc2ccc(F)c(C(F)(F)F)c2)O1 (stereo not drawn)
27 | 99 to 101 | COC(=O)c1cccc(F)c1OC
28 | 135 | COc1cc(C(=O)N2CCCCc3cc(Cl)ccc32)ccc1OCc1ccccc1Cl
29 | 166 | COc1cc(-n2cnc3cc(-c4ccc(Cl)cc4)sc3c2=O)ccc1OC[C@H](OP(=O)(O)O)C1CC1
30 | 112 | COC(=O)c1ccccc1NC(C#N)c1ccc(Br)cc1 (stereo not drawn)
31 | 204 | CCOC(=O)C1=C(COCCNC(N)=S)NC(C)=C(C(=O)OC)C1c1ccccc1Cl (stereo not drawn)
32 | > 260 | O=C(O)c1cnc2cc(O)cc(O)c2c1
33 | 69 to 71.5 | CCCCCCCCCCCCCCCCCCNC(=O)OCC(CNS(=O)(=O)CCCI)Oc1ccon1 (stereo not drawn)
34 | 134 to 135 | COC(=O)c1ccccc1-c1nc(COc2ccc(COc3nn(-c4ccccc4)cc3C=O)cc2OC)c(C)o1
35 | 189 to 190 | CC(=O)O[C@@H]1OCC[C@@H]1NC(=O)[C@H](CC(C)C)NS(=O)(=O)c1ccc(N)cc1
36 | 200 | CCCCCCCCCCCCCCCCCC(=O)NC(C)C(=O)NC(CCC(=O)NC(C=CCCC(=O)O)C(=O)O)C(=O)O (stereo not drawn)
37 | 126 to 127 | O=c1c(-c2ccc(Cl)cc2)c(CCC2CC2)nc2ccccn12
38 | 82 to 90 | CCNC(=O)Nc1nc2nc(NCCCN3CCN(C)CC3)ncc2cc1-c1c(Cl)cccc1Cl
39 | 208 to 209 | COc1ccc(OC)c2c1C(=O)C=C(SCCC(=O)O)C2=O
40 | 136 to 139 | COc1c(Cl)cc(C(C)(C)N2CC(C)=C(c3ccccc3)C2=O)cc1Cl
41 | 222 to 225 | CSc1ccccc1C(=O)Nc1ccc(C(=O)N2Cc3ccccc3Cc3ccccc32)cc1
42 | 207 to 210 | CC(C)c1cccc(C(C)C)c1NC(=O)C(Br)c1ccccc1 (stereo not drawn)
43 | 249 to 250 | CCCCCCCCCCCCc1ccc(S(=O)(=O)Nc2nnc(S(N)(=O)=O)s2)cc1
44 | 102 to 104 | CC1(C)Cc2cccc(Oc3ccc(N)cc3Cl)c2O1
45 | 180 to 182 | COc1nc(C)cnc1NS(=O)(=O)c1cccnc1-c1ccc(OCCO)cc1
46 | 133 to 135 | CC1(CSC#N)SC2C(NC(=O)Cc3ccccc3)C(=O)N2C1C(=O)OCC(Cl)(Cl)Cl (stereo not drawn)
47 | 47.5 to 49 | CC(C)(c1ccccc1)c1cccc(S(=O)(=O)Cl)c1
48 | 85 to 87 | COc1ccc(OC2CCN(C)C2)c(C(N)=O)c1 (stereo not drawn)

Row | melting point [°C] | Structure (SMILES)
49 | 51 to 53 | COC(=O)COc1ccc(C(C)=O)cc1C
50 | 120 to 122 | Clc1ccc(-c2cc3ccccc3nc2Cl)c(Cl)c1
51 | 80 to 84 | CC(C)(C)c1csc(-c2cc3cc(OCc4ccccc4Cc4nnn[nH]4)ccc3o2)n1
52 | 156 to 157 | CCCn1c(=O)c2c(nc(/C=C/c3ccc(OC(=O)c4ccccc4)c(OC)c3)n2C)n(CCC)c1=O
53 | 65.5 to 66.5 | COC(=O)CC(=O)c1cc(OC)c2c(c1)OCO2
54 | 189 to 193 | O=C(Nc1ccc(C(F)(F)F)cc1)C12CC3CC(CC(C3)C1)C2
55 | 65.5 to 67 | COC(=O)c1cc(Cl)ccc1N(C)S(=O)(=O)c1ccc(C)cc1
56 | 209 to 212 | CN1CCN(c2cccc(Nc3cc(NC(=O)Nc4c(Cl)cccc4Cl)ncn3)c2)CC1
57 | 125 | COc1cccc(C(=O)N[C@H]2C[C@@H](c3cc(NC(=O)Cc4cccc5ccccc45)n[nH]3)C2)c1
58 | 130 to 132 | Clc1cc2c(c(-c3nc4ncccc4o3)c1)CCCC2
59 | 188 | O=C(O)CN(CC(=O)O)c1cccc(N(CC(=O)O)CC(=O)O)c1
60 | 222 to 223 | COC(=O)c1cc(F)c(O)nc1Nc1ccc(F)cc1F
61 | 89 to 91 | COC(=O)Cn1sc2ccccc2c1=O
62 | 293 | CN1CCN(S(=O)(=O)c2cc(NC(=O)c3cnn4c(C(F)F)cc(-c5ccc(C(F)(F)F)cc5)nc34)c(Cl)s2)CC1
63 | 94 to 95 | CCOC(=O)c1cc2cc(Br)ccc2s1
64 | 130 | O=C(C#Cc1ccc(Cl)cc1Cl)Nc1ccc2oc(CCN3CCCC3)nc2c1
65 | 125 to 126 | CCCCCNC(=S)NC(Cc1ccc(OC)cc1)=Nc1ccccc1
66 | 130 to 132 | CN1C(=O)N=NC1CSc1ccccc1OCCc1coc(-c2ccccc2)n1 (stereo not drawn)
67 | 183 to 184 | O=C(Nc1nc(C(F)(F)F)c(Cl)s1)c1ccc(Cl)c([N+](=O)[O-])c1
68 | 221 to 224 | COc1ccc(-c2nc(C(F)(F)F)[nH]c2-c2ccc(S(C)(=O)=O)cc2)cc1OC
69 | 133 to 134 | O=C(O)Cc1ccccc1OCCCc1cn(-c2ccc(C(F)(F)F)cn2)nc1-c1ccccc1
70 | 169 to 171 | CC(=O)NC[C@H]1CN(c2cc(F)c(C3CCN(C(=O)COCc4ccccc4)CC3)c(F)c2)C(=O)O1
71 | 88 to 90 | CCCC(=O)Nc1cccc(N(CCO)CCO)c1
72 | 165 to 167 | COc1ccc(-c2ncn(Cc3ccccc3)c2-c2ccc(OC)cc2)cc1

Row | melting point [°C] | Structure (SMILES)
73 | 65 to 68 | CN(CCCNC(=NCCCOc1cccc(CN2CCCCC2)c1)NC#N)CCN(Cc1ccc(F)cc1)c1ccccn1
74 | 120 | CCN(c1cccc(Cl)c1)C(C(=O)O)c1c(Cl)cccc1Cl (stereo not drawn)
75 | 111 to 112 | CSc1ccc([N+](=O)[O-])cn1
76 | 227 to 229 | O=P1(c2ccccc2)c2ccccc2CN1c1ccccc1 (stereo not drawn)
77 | 111 to 113 | Cc1c(OCC(F)(F)F)ccnc1CS(=O)c1nc2ccccc2n1N (stereo not drawn)
78 | 98 | CCc1nc2c(C)cc(C)nc2n1Cc1ccc(C(=O)c2ccccc2)cc1
79 | 110 to 111 | OC(CCCc1cccnc1)COc1ccc(C=Cc2ccccc2)cc1 (stereo not drawn)
80 | 195 to 200 | CC(NC(=O)Cc1cc(F)cc(F)c1)C(=O)NC1(F)NC(=O)Cc2ccccc21 (stereo not drawn)
81 | 249 to 251 | CS(=O)(=O)Nc1cc2occ(C(N)=O)c(=O)c2cc1Oc1ccccc1F
82 | 187 to 189 | CC(C)c1ccc(-c2nc(-c3cccc(C(=O)O)c3)co2)cc1
83 | 145 to 148 | COCc1nc2cnc3ccccc3c2n1CC(C)(C)O
84 | 162 to 163 | O=c1nc(-c2cccc(CN3CCCCC3)n2)sc2ccccc12
85 | 138 to 141 | NC(=O)CN1C[C@@H]2CCC[C@@H]2C1=O (relative stereo)
86 | 145 to 146 | O=C(O)COc1ccc(F)cc1C(=O)NCc1ccc(Br)cc1F
87 | 99 to 100 | Cc1oc(-c2ccccc2)nc1CCc1ccc(C=CC=O)cc1
88 | 181 to 183 | COC(=O)c1cc(=O)c2cc(OC)c(=O)ccc2n1C
89 | 236 to 238 | CC1CNC(c2n[nH]c(-c3ccc(Cl)cc3)c2-c2ccncc2)C(C)N1 (stereo not drawn)
90 | 178 to 181 | CCOCc1nc2c(N)nc3ccccc3c2n1CCOCCNC(=O)N1CCOCC1
91 | 97 to 98 | Cc1ccc(-c2cc(C(F)(F)F)nn2-c2ccc(S(=O)(=O)Cl)cc2)cc1
92 | 172 to 174 | CC(=O)NC(C(=O)NCc1cccnc1)c1ccco1 (stereo not drawn)
93 | 83 to 84 | CCOC(=O)c1ccc(OCc2ccc(Cl)cc2)cc1
94 | 112 to 114 | NC(=O)C[C@H](NC(=O)CCc1ccc(OCc2ccccc2)cc1OCc1ccccc1)C(=O)N1CCN(Cc2ccccc2)CC1

Row | Structure (SMILES) | melting point [°C]
95 | CCCCC1(O)CCC2C3CCC4=CC(=O)CC(C)C4(C)C3CCC21C (stereo not drawn) | 85
96 | Fc1ccc2[nH]cc(C3=CCN(CC4COc5ccc6ncncc6c5O4)CC3)c2c1 (stereo not drawn) | 233 to 235
97 | CCCCCC(C)(C)NC(=O)c1nn(-c2ccc(F)cc2F)c2c1C1CCC2C1 (stereo not drawn) | 76 to 78
98 | FCc1ccc(-c2ccc(-c3cn([C@H]4CN5CCC4CC5)nn3)s2)cc1 | 199
